Here are results for 30 compounds from patent US8987250B2 (Gilead Sciences, Inc., priority 2012, dated 2015).

In one assay the test system is HIV-IIIb. Nature of the assay: Test A: Antiviral Assay in MT4 Cells. As to conditions: Human immunodeficiency virus 1, IIIB, MT4, 120 h, Table 1; MT-4 cells infected with HIV-IIIb, 5 days of incubation, CellTiter-Glo; read-out: EC50. In kind it is cell-based. The protocol:
The antiviral properties of a compound of the invention may be determined using Test A described below.
Test A: Antiviral Assay in MT4 Cells
For the antiviral assay utilizing MT-4 cells, 0.4 μL of […] test concentration of 3-fold serially diluted compound in DMSO was added to 40 μL of cell growth medium (RPMI 1640, 10% FBS, 1% penicilline/Streptomycine, 1% L-Glutamine, 1% HEPES) in each well of 384-well assay plates (10 concentrations) in quadruplicate.
One mL aliquots of 2×10e6 MT-4 cells were pre-infected for 1 and 3 hours respectively, @ 37° C. with 25 uL (MT4) or of either cell growth medium (mock-infected) or a fresh 1:250 dilution of an HIV-IIIb concentrated ABI stock (0.004m.o.i. for MT4 cells). Infected and uninfected cells were diluted in cell growth medium and 35 uL of 2000 (for MT4) cells was added to each well of the assay plates.
Assay plates were then incubated in a 37° C. incubator. After 5 days of incubation, […] of 2× concentrated CellTiter-Glo™ Reagent (catalog #G7573, Promega Biosciences, Inc., Madison, Wis.) was added to each well of the assay plate. Cell lysis was carried out by incubating at room temperature for 2-3 min and then chemiluminescence was read using the Envision reader (PerkinElmer). […]
Turning to `Cc1cc2nc(-c3cccc(-c4cnn(Cc5ccccc5)c4)c3)sc2c(-c2ccc(Cl)cc2)c1[C@H](OC(C)(C)C)C(=O)O` [Compound 150], the EC50 (usually the concentration that produces a half-maximal response) was 91 nM.

Turning to `Cc1cc2nc(-c3cccc(-c4cnn(C(C)C)c4)c3)sc2c(-c2ccc(Cl)cc2)c1[C@H](OC(C)(C)C)C(=O)O` [Compound 151], the 50% effective concentration (EC50) is 32 nM.

Turning to `Cc1cc2nc(-c3cccc(-c4ccc(N5CCN(C)CC5)nc4)c3)sc2c(-c2ccc(Cl)cc2)c1[C@H](OC(C)(C)C)C(=O)O` [Compound 153], the 50% effective concentration (EC50) worked out at 15 nM.

Turning to `Cc1cc2nc(-c3ccnc(-c4cnn(C)c4)c3)sc2c(-c2ccc(Cl)cc2)c1[C@H](OC(C)(C)C)C(=O)O` [Compound 154], the EC50 came to 16 nM.

For `Cc1cc2nc(-c3ccnc(-c4cccc(C(N)=O)c4)c3)sc2c(-c2ccc(Cl)cc2)c1[C@H](OC(C)(C)C)C(=O)O` [Compound 155], the EC50 came to 66 nM.

Regarding `Cc1cc2nc(-c3ccnc(-c4cccc(C#N)c4)c3)sc2c(-c2ccc(Cl)cc2)c1[C@H](OC(C)(C)C)C(=O)O` [Compound 156], the EC50 amounted to 26 nM.

On to `Cc1cc2nc(-c3cncc(-c4ccc5c(c4)ncn5C)c3)sc2c(-c2ccc(Cl)cc2)c1[C@H](OC(C)(C)C)C(=O)O` [Compound 157], for which the 50% effective concentration (EC50) came to 29 nM.

Regarding `Cc1cc2nc(-c3cccc(-c4ccnn4C)c3)sc2c(-c2ccc(Cl)cc2)c1[C@H](OC(C)(C)C)C(=O)O` [Compound 159], the EC50 is 46 nM.

Consider `COc1ncccc1-c1cccc(-c2nc3cc(C)c([C@H](OC(C)(C)C)C(=O)O)c(-c4ccc(Cl)cc4)c3s2)c1` [Compound 160], for which the half-maximal effective concentration (EC50) stood at 136 nM.

For `COc1ccncc1-c1cccc(-c2nc3cc(C)c([C@H](OC(C)(C)C)C(=O)O)c(-c4ccc(Cl)cc4)c3s2)c1` [Compound 161], the EC50 was found to be 116 nM.

On to `Cc1cc2nc(-c3cccc(-c4ccccc4)c3F)sc2c(-c2ccc(Cl)cc2)c1[C@H](OC(C)(C)C)C(=O)O` [Compound 162], for which the EC50 turned out to be 350 nM.

Regarding `Cc1cc2nc(-c3cccc(-c4ccc5c(cnn5C)c4)c3)sc2c(-c2ccc3c(c2)C(=O)CCO3)c1[C@H](OC(C)(C)C)C(=O)O` [Compound 169], the 50% effective concentration (EC50) stood at 33 nM.

As for `Cc1cc2nc(-c3cccc(-c4ccc5c(cnn5C)c4)c3)sc2c(-c2ccc3c(c2)CCCO3)c1[C@H](OC(C)(C)C)C(=O)O` [Compound 170], the 50% effective concentration (EC50) came out at 35 nM.

Staying with this assay, now noted: Human immunodeficiency virus 1, IIIB, MT4, 120 h, Table 2; MT-4 cells infected with HIV-IIIb, 5 days of incubation, CellTiter-Glo; read-out: EC50.
Consider `CCn1cc2cc(-c3cc(-c4nc5cc(C)c([C@H](OC(C)(C)C)C(=O)O)c(-c6ccc(Cl)cc6)c5s4)ccn3)ccc2n1` [Compound 173, (S)-2-tert-butoxy-2-(7-(4-chlorophenyl)-2-(2-(2-ethyl-2H-indazol-5-yl)pyridin-4-yl)-5-methylbenzo[d]thiazol-6-yl)acetic acid], for which the EC50 amounted to 11 nM.

As to `CCn1ncc2cc(-c3cc(-c4nc5cc(C)c([C@H](OC(C)(C)C)C(=O)O)c(-c6ccc(Cl)cc6)c5s4)ccn3)ccc21` [Compound 174, (S)-2-tert-butoxy-2-(7-(4-chlorophenyl)-2-(2-(1-ethyl-1H-indazol-5-yl)pyridin-4-yl)-5-methylbenzo[d]thiazol-6-yl)acetic acid], the EC50 was determined as 26 nM.

With `Cc1cc2nc(-c3ccnc(-c4ccc5c(cnn5C5CC5)c4)c3)sc2c(-c2ccc(Cl)cc2)c1[C@H](OC(C)(C)C)C(=O)O` [Compound 175, (S)-2-tert-butoxy-2-(7-(4-chlorophenyl)-2-(2-(1-cyclopropyl-1H-indazol-5-yl)pyridin-4-yl)-5-methylbenzo[d]thiazol-6-yl)acetic acid], the EC50 was 33 nM.

`Cc1cc2nc(-c3ccnc(-c4ccc5nn(C(F)F)cc5c4)c3)sc2c(-c2ccc(Cl)cc2)c1[C@H](OC(C)(C)C)C(=O)O` [Compound 176, (S)-2-tert-butoxy-2-(7-(4-chlorophenyl)-2-(2-(2-(difluoromethyl)-2H-indazol-5-yl)pyridin-4-yl)-5-methylbenzo[d]thiazol-6-yl)acetic acid]: the EC50 was 18 nM.

As to `Cc1cc2nc(-c3ccnc(-c4ccc5c(cnn5C(F)F)c4)c3)sc2c(-c2ccc(Cl)cc2)c1[C@H](OC(C)(C)C)C(=O)O` [Compound 177, (S)-2-tert-butoxy-2-(7-(4-chlorophenyl)-2-(2-(1-(difluoromethyl)-1H-indazol-5-yl)pyridin-4-yl)-5-methylbenzo[d]thiazol-6-yl)acetic acid], the EC50 was found to be 39 nM.

In the case of `Cc1cc2nc(-c3ccnc(-c4ccc5c(cnn5C(F)(F)F)c4)c3)sc2c(-c2ccc(Cl)cc2)c1[C@H](OC(C)(C)C)C(=O)O` [Compound 178, (S)-2-tert-butoxy-2-(7-(4-chlorophenyl)-5-methyl-2-(2-(1-(trifluoromethyl)-1H-indazol-5-yl)pyridin-4-yl)benzo[d]thiazol-6-yl)acetic acid], the concentration for a half-maximal effect (EC50) was found to be 89 nM.

Turning to `Cc1cc2nc(-c3ccnc(-c4ccc5c(cnn5C5CNC5)c4)c3)sc2c(-c2ccc(Cl)cc2)c1[C@H](OC(C)(C)C)C(=O)O` [Compound 179, (S)-2-(2-(2-(1-(azetidin-3-yl)-1H-indazol-5-yl)pyridin-4-yl)-7-(4-chlorophenyl)-5-methylbenzo[d]thiazol-6-yl)-2-tert-butoxyacetic acid], the EC50 is 73 nM.

As to `Cc1cc2nc(-c3ccnc(-c4ccc5c(cnn5C)n4)c3)sc2c(-c2ccc(Cl)cc2)c1[C@H](OC(C)(C)C)C(=O)O` [Compound 180, (S)-2-tert-butoxy-2-(7-(4-chlorophenyl)-5-methyl-2-(2-(1-methyl-1H-pyrazolo[4,3-b]pyridin-5-yl)pyridin-4-yl)benzo[d]thiazol-6-yl)acetic acid], the 50% effective concentration (EC50) came to 5 nM.

Take `Cc1cc2c(c(-c3ccc(Cl)cc3)c1[C@H](OC(C)(C)C)C(=O)O)n(C1CCN(C)CC1)c(=O)n2C` [Compound 181, (S)-2-tert-butoxy-2-(4-(4-chlorophenyl)-1,6-dimethyl-3-(1-methylpiperidin-4-yl)-2-oxo-2,3-dihydro-1H-benzo[d]imidazol-5-yl)acetic acid]: the EC50 worked out at 27 nM.

For `Cc1cc2nc(-c3cccn(-c4ccc5c(cnn5C)c4)c3=O)sc2c(-c2ccc(Cl)cc2)c1[C@H](OC(C)(C)C)C(=O)O` [Compound 182, (S)-2-tert-butoxy-2-(7-(4-chlorophenyl)-5-methyl-2-(1-(1-methyl-1H-indazol-5-yl)-2-oxo-1,2-dihydropyridin-3-yl)benzo[d]thiazol-6-yl)acetic acid], the EC50 came to 80 nM.

As for `Cc1cc2nc(-c3ccnc(-c4ccc5c(c4)n(C)c(=O)n5C)c3)sc2c(-c2ccc(Cl)cc2)c1[C@H](OC(C)(C)C)C(=O)O` [Compound 183, (S)-2-tert-butoxy-2-(7-(4-chlorophenyl)-2-(2-(1,3-dimethyl-2-oxo-2,3-dihydro-1H-benzo[d]imidazol-5-yl)pyridin-4-yl)-5-methylbenzo[d]thiazol-6-yl)acetic acid], the EC50 was found to be 18 nM.

In the case of `Cc1cc2nc(-c3ccnc(-c4cnc5c(c4)OCC(=O)N5)c3)sc2c(-c2ccc(Cl)cc2)c1[C@H](OC(C)(C)C)C(=O)O` [Compound 184, (S)-2-tert-butoxy-2-(7-(4-chlorophenyl)-5-methyl-2-(2-(3-oxo-3,4-dihydro-2H-pyrido[3,2-b][1,4]oxazin-7-yl)pyridin-4-yl)benzo[d]thiazol-6-yl)acetic acid], the half-maximal effective concentration (EC50) came to 19 nM.

On to `Cc1cc2nc(-c3ccnc(-n4ccc5cccnc5c4=O)c3)sc2c(-c2ccc(Cl)cc2)c1[C@H](OC(C)(C)C)C(=O)O` [Compound 187, (S)-2-tert-butoxy-2-(7-(4-chlorophenyl)-5-methyl-2-(2-(8-oxo-1,7-naphthyridin-7(8H)-yl)pyridin-4-yl)benzo[d]thiazol-6-yl)acetic acid], for which the EC50 was determined as 25 nM.

`Cc1cc2nc(-c3ccnc(-c4ccc5c(=O)n(C)n(C)c5c4)c3)sc2c(-c2ccc(Cl)cc2)c1[C@H](OC(C)(C)C)C(=O)O` [Compound 188, (S)-2-tert-butoxy-2-(7-(4-chlorophenyl)-2-(2-(1,2-dimethyl-3-oxo-2,3-dihydro-1H-indazol-6-yl)pyridin-4-yl)-5-methylbenzo[d]thiazol-6-yl)acetic acid]: the half-maximal effective concentration (EC50) is 12 nM.

Regarding `Cc1cc2nc(-c3ccnc(-n4ncc5ccccc54)c3)sc2c(-c2ccc(Cl)cc2)c1[C@H](OC(C)(C)C)C(=O)O` [Compound 189, (S)-2-(2-(2-(1H-indazol-1-yl)pyridin-4-yl)-7-(4-chlorophenyl)-5-methylbenzo[d]thiazol-6-yl)-2-tert-butoxy acetic acid], the 50% effective concentration (EC50) was determined as 249 nM.

As to `Cc1cc2nc(-c3ccnc(-c4nn(C)c5ccccc45)c3)sc2c(-c2ccc(Cl)cc2)c1[C@H](OC(C)(C)C)C(=O)O` [Compound 190, (S)-2-tert-butoxy-2-(7-(4-chlorophenyl)-5-methyl-2-(2-(1-methyl-1H-indazol-3-yl)pyridin-4-yl)benzo[d]thiazol-6-yl)acetic acid], the EC50 turned out to be 112 nM.

`Cc1cc2nc(-c3ccnc(-c4ccc5c(ccc(=O)n5C)c4)c3)sc2c(-c2ccc(Cl)cc2)c1[C@H](OC(C)(C)C)C(=O)O` [Compound 191, (S)-2-tert-butoxy-2-(7-(4-chlorophenyl)-5-methyl-2-(2-(1-methyl-2-oxo-1,2-dihydroquinolin-6-yl)pyridin-4-yl)benzo[d]thiazol-6-yl)acetic acid]: the EC50 came to 10 nM.
